This passage reports EC50 results from patent US11912686B2 (Gilead Sciences, Inc., priority 2020, dated 2024).

As usually defined, the EC50 is the midpoint of the concentration-response curve.

Sequence of human LPAR1 (Q92633 whole entry): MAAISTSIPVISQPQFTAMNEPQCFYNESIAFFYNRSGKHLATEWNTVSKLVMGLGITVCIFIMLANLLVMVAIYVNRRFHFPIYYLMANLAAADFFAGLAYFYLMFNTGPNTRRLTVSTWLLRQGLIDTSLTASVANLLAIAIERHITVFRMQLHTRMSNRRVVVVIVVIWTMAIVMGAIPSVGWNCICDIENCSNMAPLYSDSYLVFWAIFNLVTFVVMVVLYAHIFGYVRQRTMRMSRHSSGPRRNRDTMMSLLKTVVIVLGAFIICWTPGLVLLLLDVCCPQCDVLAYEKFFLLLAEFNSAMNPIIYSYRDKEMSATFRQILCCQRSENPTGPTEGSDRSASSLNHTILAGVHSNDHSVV

This assay has as its target human LPAR1 (Homo sapiens (Human), UniProt Q92633). The assay can be described thus: LPAR1 intracellular calcium mobilization assay (antagonist mode, FLIPR). It counts as cell-based. The conditions noted are these: CHO-K1 EDG2 cells expressing human LPAR1, LPA 18:2 at EC80 (100 nM), test compound 0.5 nM to 10 μM. Background: Calcium flux is commonly read through the fluorescence of an indicator in the cells.
As for `C[C@@H](OC(=O)Nc1c(-c2ccc(NC(=O)C3CC(C)(O)C3)cn2)nnn1C)c1cccnc1Cl` (stereo partly drawn) [Compound 108, (R)-1-(2-chloropyridin-3-yl)ethyl (4-(5-(3-hydroxy-3-methylcyclobutane-1-carboxamido)pyridin-2-yl)-1-methyl-1H-1,2,3-triazol-5-yl)carbamate], the EC50 turned out to be 420 nM. With `C[C@@H](OC(=O)Nc1c(-c2ccc(NC(=O)C3CC(C)(O)C3)cn2)nnn1C)c1cccnc1Cl` (stereo partly drawn) [Compound 109, (R)-1-(2-chloropyridin-3-yl)ethyl (4-(5-(3-hydroxy-3-methylcyclobutane-1-carboxamido)pyridin-2-yl)-1-methyl-1H-1,2,3-triazol-5-yl)carbamate], the EC50 came to 1710 nM. On to `C[C@@H](OC(=O)Nc1c(-c2ccc(NC(=O)C3(CF)CC3)cn2)nnn1C)c1cccnc1Cl` [Compound 110, (R)-1-(2-chloropyridin-3-yl)ethyl (4-(5-(1-(fluoromethyl)cyclopropane-1-carboxamido)pyridin-2-yl)-1-methyl-1H-1,2,3-triazol-5-yl)carbamate], for which the EC50 was found to be 68.2 nM. Regarding `C[C@@H](OC(=O)Nc1c(-c2ccc(NC(=O)C#CC(C)(C)O)cn2)nnn1C)c1cccnc1Cl` [Compound 111, (R)-1-(2-chloropyridin-3-yl)ethyl (4-(5-(4-hydroxy-4-methylpent-2-ynamido)pyridin-2-yl)-1-methyl-1H-1,2,3-triazol-5-yl)carbamate], the EC50 is 191 nM. Next, `C[C@@H](OC(=O)Nc1c(-c2ccc(NC(=O)c3cnn(C)c3)cn2)nnn1C)c1cccnc1Cl` [Compound 112, (R)-1-(2-chloropyridin-3-yl)ethyl (1-methyl-4-(5-(1-methyl-1H-pyrazole-4-carboxamido)pyridin-2-yl)-1H-1,2,3-triazol-5-yl)carbamate]: 1400 nM. As for `C[C@@H](OC(=O)Nc1c(-c2ccc(NC(=O)c3cn[nH]c3)cn2)nnn1C)c1cccnc1Cl` [Compound 113, (R)-1-(2-chloropyridin-3-yl)ethyl (4-(5-(1H-pyrazole-4-carboxamido)pyridin-2-yl)-1-methyl-1H-1,2,3-triazol-5-yl)carbamate], the EC50 came to 775 nM. Consider `C[C@@H](OC(=O)Nc1c(-c2ccc(NC(=O)C34CCC(F)(CC3)CC4)cn2)nnn1C)c1cccnc1Cl` [Compound 114, (R)-1-(2-chloropyridin-3-yl)ethyl (4-(5-(4-fluorobicyclo[2.2.2]octane-1-carboxamido)pyridin-2-yl)-1-methyl-1H-1,2,3-triazol-5-yl)carbamate], for which the EC50 was determined as 504 nM. Next, `C[C@@H](OC(=O)Nc1c(-c2ccc(NC(=O)C34CCC(O)(CC3)CC4)cn2)nnn1C)c1cccnc1Cl` [Compound 115, (R)-1-(2-chloropyridin-3-yl)ethyl (4-(5-(4-hydroxybicyclo[2.2.2]octane-1-carboxamido)pyridin-2-yl)-1-methyl-1H-1,2,3-triazol-5-yl)carbamate]: 654 nM; `C[C@@H](OC(=O)Nc1c(-c2ccc(NC(=O)C3(C(F)F)CC3)cn2)nnn1C)c1cccnc1Cl` [Compound 116, (R)-1-(2-chloropyridin-3-yl)ethyl (4-(5-(1-(difluoromethyl)cyclopropane-1-carboxamido)pyridin-2-yl)-1-methyl-1H-1,2,3-triazol-5-yl)carbamate]: 322 nM; `C[C@@H](OC(=O)Nc1c(-c2ccc(NC(=O)C34CC(O)(C3)C4)cn2)nnn1C)c1cccnc1Cl` [Compound 117, (R)-1-(2-chloropyridin-3-yl)ethyl (4-(5-(3-hydroxybicyclo[1.1.1]pentane-1-carboxamido)pyridin-2-yl)-1-methyl-1H-1,2,3-triazol-5-yl)carbamate]: 1140 nM.

As to `C[C@@H](OC(=O)Nc1c(-c2ccc(NC(=O)CC(C)(C)O)cn2)nnn1C)c1cccnc1Cl` [Compound 118, (R)-1-(2-chloropyridin-3-yl)ethyl (4-(5-(3-hydroxy-3-methylbutanamido)pyridin-2-yl)-1-methyl-1H-1,2,3-triazol-5-yl)carbamate], the EC50 was determined as 1340 nM. In the case of `C[C@@H](OC(=O)Nc1c(-c2ccc(NC(=O)C3(C(F)F)CC(F)(F)C3)cn2)nnn1C)c1cccnc1Cl` [Compound 119, (R)-1-(2-chloropyridin-3-yl)ethyl (4-(5-(1-(difluoromethyl)-3,3-difluorocyclobutane-1-carboxamido)pyridin-2-yl)-1-methyl-1H-1,2,3-triazol-5-yl)carbamate], the EC50 was 49.9 nM.

On to `C[C@@H](OC(=O)Nc1c(-c2ccc(NC(=O)C3(C(F)(F)F)CC(=O)C3)cn2)nnn1C)c1cccnc1Cl` [Compound 120, (R)-1-(2-chloropyridin-3-yl)ethyl (1-methyl-4-(5-(3-oxo-1-(trifluoromethyl)cyclobutane-1-carboxamido)pyridin-2-yl)-1H-1,2,3-triazol-5-yl)carbamate], for which the EC50 amounted to 2470 nM. For `C[C@@H](OC(=O)Nc1c(-c2ccc(NC(=O)[C@]3(C)C[C@H](C#N)C3)cn2)nnn1C)c1cccnc1Cl` [Compound 121, (R)-1-(2-chloropyridin-3-yl)ethyl (4-(5-((1s,3S)-3-cyano-1-methylcyclobutane-1-carboxamido)pyridin-2-yl)-1-methyl-1H-1,2,3-triazol-5-yl)carbamate], the half-maximal effective concentration (EC50) was 264 nM.

Consider `C[C@@H](OC(=O)Nc1c(-c2ccc(NC(=O)[C@]3(C)C[C@@H](C#N)C3)cn2)nnn1C)c1cccnc1Cl` [Compound 122, (R)-1-(2-chloropyridin-3-yl)ethyl (4-(5-((1r,3R)-3-cyano-1-methylcyclobutane-1-carboxamido)pyridin-2-yl)-1-methyl-1H-1,2,3-triazol-5-yl)carbamate], for which the 50% effective concentration (EC50) was found to be 123 nM. `C[C@@H](OC(=O)Nc1c(-c2ccc(NC(=O)C3CC(F)(C#N)C3)cn2)nnn1C)c1cccnc1Cl` (stereo partly drawn) [Compound 123, (R)-1-(2-chloropyridin-3-yl)ethyl (4-(5-(3-cyano-3-fluorocyclobutane-1-carboxamido)pyridin-2-yl)-1-methyl-1H-1,2,3-triazol-5-yl)carbamate]: the EC50 is 626 nM. For the compound `C[C@@H](O)C(=O)Nc1ccc(-c2nnn(C)c2NC(=O)O[C@H](C)c2cccnc2Cl)nc1` [Compound 124, (R)-1-(2-chloropyridin-3-yl)ethyl (4-(5-((R)-2-hydroxypropanamido)pyridin-2-yl)-1-methyl-1H-1,2,3-triazol-5-yl)carbamate], the EC50 worked out at 3630 nM. For the compound `C[C@H](O)C(=O)Nc1ccc(-c2nnn(C)c2NC(=O)O[C@H](C)c2cccnc2Cl)nc1` [Compound 125, (R)-1-(2-chloropyridin-3-yl)ethyl (4-(5-((S)-2-hydroxypropanamido)pyridin-2-yl)-1-methyl-1H-1,2,3-triazol-5-yl)carbamate], the EC50 is 2710 nM.

Consider `C[C@@H](OC(=O)Nc1c(-c2ccc(NC(=O)CO)cn2)nnn1C)c1cccnc1Cl` [Compound 126, (R)-1-(2-chloropyridin-3-yl)ethyl (4-(5-(2-hydroxyacetamido)pyridin-2-yl)-1-methyl-1H-1,2,3-triazol-5-yl)carbamate], for which the concentration giving a half-maximal response (EC50) amounted to 1830 nM. Turning to `C[C@@H](OC(=O)Nc1c(-c2ccc(NC(=O)[C@H]3C[C@H](C#N)C3)cn2)nnn1C)c1cccnc1Cl` [Compound 127, (R)-1-(2-chloropyridin-3-yl)ethyl (4-(5-((1r,3R)-3-cyanocyclobutane-1-carboxamido)pyridin-2-yl)-1-methyl-1H-1,2,3-triazol-5-yl)carbamate], the EC50 came to 416 nM. For `C[C@@H](OC(=O)Nc1c(-c2ccc(NC(=O)[C@H]3C[C@@H](C#N)C3)cn2)nnn1C)c1cccnc1Cl` [Compound 128, (R)-1-(2-chloropyridin-3-yl)ethyl (4-(5-((1s,3S)-3-cyanocyclobutane-1-carboxamido)pyridin-2-yl)-1-methyl-1H-1,2,3-triazol-5-yl)carbamate], the EC50 was 309 nM.

On to `C[C@@H](OC(=O)Nc1c(-c2ccc(NC(=O)C(C)(C)C#N)cn2)nnn1C)c1cccnc1Cl` [Compound 129, (R)-1-(2-chloropyridin-3-yl)ethyl (4-(5-(2-cyano-2-methylpropanamido)pyridin-2-yl)-1-methyl-1H-1,2,3-triazol-5-yl)carbamate], for which the EC50 came out at 492 nM. For the compound `C[C@@H](OC(=O)Nc1c(-c2ccc(NC(=O)C3CC3C#N)cn2)nnn1C)c1cccnc1Cl` (stereo partly drawn) [Compound 130, (R)-1-(2-chloropyridin-3-yl)ethyl (4-(5-(2-cyanocyclopropane-1-carboxamido)pyridin-2-yl)-1-methyl-1H-1,2,3-triazol-5-yl)carbamate], the EC50 worked out at 271 nM. Regarding `C[C@@H](OC(=O)Nc1c(-c2ccc(NC(=O)C3(F)CC(F)C3)cn2)nnn1C)c1cccnc1Cl` (stereo partly drawn) [Compound 131, (R)-1-(2-chloropyridin-3-yl)ethyl (4-(5-(1,3-difluorocyclobutane-1-carboxamido)pyridin-2-yl)-1-methyl-1H-1,2,3-triazol-5-yl)carbamate], the EC50 is 260 nM. In the case of `C[C@@H](OC(=O)Nc1c(-c2ccc(NC(=O)C3(C#N)CC(F)C3)cn2)nnn1C)c1cccnc1Cl` (stereo partly drawn) [Compound 132, (R)-1-(2-chloropyridin-3-yl)ethyl (4-(5-(1-cyano-3-fluorocyclobutane-1-carboxamido)pyridin-2-yl)-1-methyl-1H-1,2,3-triazol-5-yl)carbamate], the EC50 was found to be 197 nM.

Take `C[C@@H](OC(=O)Nc1c(-c2ccc(NC(=O)[C@]3(F)C[C@H](O)C3)cn2)nnn1C)c1cccnc1Cl` [Compound 133, (R)-1-(2-chloropyridin-3-yl)ethyl (4-(5-((1r,3R)-1-fluoro-3-hydroxycyclobutane-1-carboxamido)pyridin-2-yl)-1-methyl-1H-1,2,3-triazol-5-yl)carbamate]: the EC50 turned out to be 344 nM. Under `C[C@@H](OC(=O)Nc1c(-c2ccc(NC(=O)[C@]3(F)C[C@@H](O)C3)cn2)nnn1C)c1cccnc1Cl` [Compound 134, (R)-1-(2-chloropyridin-3-yl)ethyl (4-(5-((1s,3S)-1-fluoro-3-hydroxycyclobutane-1-carboxamido)pyridin-2-yl)-1-methyl-1H-1,2,3-triazol-5-yl)carbamate] stands 449 nM.
